Values quoted from earlier work as cited in patent US12257290B2, “PIC1 inhibition of myeloperoxidase oxidative activity in an animal model” (priority 2018, dated 2025).

Conditions: intranasal administration; animal models; cited from earlier work

DNase
symptoms of TRALI: reduced symptoms of TRALI
